Source: the Deep4Chem optical property database
Values belong to the molecule of their own block, whether it stands above or below them.

Assay: solvent given as SMILES

emission maximum (in C1CCOC1): 495 nm | emission maximum (in CC#N): 522 nm | emission maximum (in CCO): 504 nm | emission maximum (in CCOC(C)=O): 495 nm | emission maximum (in CN(C)C=O): 521 nm | emission maximum (in ClCCl): 513 nm | emission maximum (in c1ccccc1): 468 nm
Structure (SMILES): COc1ccc([C@@H]2C[C@](O)(c3ccccn3)C[C@](O)(c3ccccn3)[C@H]2C(=O)c2ccc(N(c3ccccc3)c3ccccc3)cc2)cc1

emission maximum (in ClCCl): 341 nm
Structure (SMILES): Cn1nc(-c2ccc(C(F)(F)F)cc2)cc1-c1ccccc1

Structure (SMILES): COc1ccc(/C=C/C2=[O+][B-](F)(F)OC(/C=C/c3ccc(OC)c4ccccc34)=C2c2ccccc2)c2ccccc12
emission maximum (in CC#N): 649 nm | emission maximum (in CC(C)=O): 631 nm | emission maximum (in CCOC(C)=O): 603 nm | emission maximum (in CCOCC): 583 nm | emission maximum (in ClC(Cl)(Cl)Cl): 577 nm | emission maximum (in ClCCl): 633 nm

emission maximum (in ClCCl): 705 nm
Structure (SMILES): CCOC(=O)COc1ccc(/C=C/C2=[N+]3C(=Cc4c5ccccc5c(-c5[nH]c(C)cc5C)n4[B-]3(F)F)C(C)=C2)cc1

Structure (SMILES): Oc1ccccc1/C=N/c1ccc(Cn2cncn2)cc1
emission maximum (in C1CCOC1): 363.99 nm | emission maximum (in C1COCCO1): 324 nm | emission maximum (in CC#N): 428.01 nm | emission maximum (in CC(C)=O): 381 nm | emission maximum (in CC(C)O): 367 nm | emission maximum (in CCCCCC): 314 nm | emission maximum (in CCCCO): 368 nm | emission maximum (in CCO): 407 nm | emission maximum (in CCOC(C)=O): 357 nm | emission maximum (in CCOCC): 346 nm | emission maximum (in CN(C)C=O): 397.99 nm | emission maximum (in CO): 430 nm | emission maximum (in CS(C)=O): 437.01 nm | emission maximum (in Cc1ccccc1): 326 nm | emission maximum (in ClCCl): 363 nm

emission maximum (in CC#N): 557 nm
Structure (SMILES): CCCn1c2cccc3c2[c+]2c4c1cccc4n(CCC)c1cccc(c12)n3CCC

emission maximum (in CC#N): 429 nm
Structure (SMILES): N#Cc1nn(-c2ccc(Cl)cc2)nc1N1CCCC1

Structure (SMILES): CCCCC(CC)Cn1c2cc(C#N)ccc2c2cc(-c3ccc(N(c4ccccc4)c4ccccc4)cc3)c(C#N)cc21 (configuration not stated)
emission maximum (in C1CCCCC1): 444 nm | emission maximum (in C1CCOC1): 507 nm | emission maximum (in CC#N): 548 nm | emission maximum (in CCCCOCCCC): 464 nm | emission maximum (in CCN(CC)CC): 461.69 nm | emission maximum (in CCOC(C)=O): 463 nm | emission maximum (in CCOCC): 501 nm | emission maximum (in CN(C)C=O): 543 nm | emission maximum (in Cc1ccccc1): 474 nm | emission maximum (in ClC=C(Cl)Cl): 477 nm | emission maximum (in ClCCl): 517 nm

Structure (SMILES): COc1ccc(/C=C/c2nc(/C=C/c3ccc(N(C)C)cc3)cc(/C=C/c3ccc(N(C)C)cc3)n2)cc1
emission maximum (in C1CCOC1): 522 nm | emission maximum (in CC#N): 581 nm | emission maximum (in CC(C)=O): 559 nm | emission maximum (in CCCCCCC): 450 nm | emission maximum (in CS(C)=O): 598 nm | emission maximum (in Cc1ccccc1): 480 nm | emission maximum (in ClCCl): 533 nm

emission maximum (in ClCCl): 490 nm
Structure (SMILES): CCCCOc1c(-c2ccc(N(c3ccccc3)c3ccccc3)cc2)cc2cc(-c3ccc(N(c4ccccc4)c4ccccc4)cc3)c(OCCCC)c3c4c(OCCCC)c(-c5ccc(N(c6ccccc6)c6ccccc6)cc5)cc5cc(-c6ccc(N(c7ccccc7)c7ccccc7)cc6)c(OCCCC)c(c1c23)c54

emission maximum (in CC#N): 488 nm | emission maximum (in ClCCl): 487 nm
Structure (SMILES): COc1ccc(/C=C/C(=O)c2c(O)cc(C)oc2=O)cc1

emission maximum (in ClCCl): 449 nm | emission maximum (in c1cc(-n2c3ccccc3c3ccccc32)cc(-n2c3ccccc3c3ccccc32)c1): 434 nm
Structure (SMILES): CC(C)(C)c1ccc2c(c1)c1cc(C(C)(C)C)ccc1n2-c1ccc(-c2ccc3c(c2)C2(c4cc(-c5ccc(-n6c7ccc(C(C)(C)C)cc7c7cc(C(C)(C)C)ccc76)cc5)ccc4-3)c3ccccc3S(=O)(=O)c3ccccc32)cc1

emission maximum (in ClC(Cl)Cl): 696 nm
Structure (SMILES): COc1ccc(N(c2ccc(OC)cc2)c2ccc(-c3ccc(C=C(C#N)C#N)cc3)cc2)cc1

emission maximum (in CC#N): 470 nm | emission maximum (in CO): 463 nm | emission maximum (in O): 475 nm
Structure (SMILES): CN(C)CCCN1c2ccccc2Sc2ccc(C(F)(F)F)cc21

Structure (SMILES): CC[N+]1(CC)CN2C(=N1)C(C(=O)O)=Cc1cc(Oc3ccccc3)ccc12
emission maximum (in O): 485 nm

emission maximum (in CO): 448.15 nm | emission maximum (in ClCCl): 407.47 nm
Structure (SMILES): O=c1c2ccc(N3CCCCC3)cc2oc2cc(N3CCCCC3)ccc12

Structure (SMILES): c1ccc(C2(c3ccccc3)c3ccccc3N(c3ccc(-c4nc([C@]56CC7CC(C[C@@H](C7)C5)C6)nc([C@]56C[C@H]7C[C@@H](C[C@H](C7)C5)C6)n4)cc3)c3ccccc32)cc1
emission maximum (in CC(C)(C)c1ccc(-n2c3ccc([Si](c4ccccc4)(c4ccccc4)c4ccccc4)cc3c3cc([Si](c4ccccc4)(c4ccccc4)c4ccccc4)ccc32)cc1): 445.29 nm | emission maximum (in Cc1ccccc1): 451.05 nm

emission maximum (in ClC(Cl)Cl): 729 nm
Structure (SMILES): Cc1ccc(/C2=c3\cc/c(o3)=C(\c3ccc(C)cc3)c3ccc([nH]3)-c3ccc4n3[B-](F)(F)[N+]3=C(C=CC3=C4c3ccc[nH]3)c3ccc2[nH]3)cc1

emission maximum (in ClC(Cl)Cl): 518 nm
Structure (SMILES): C[Si]1(C)O[Si](C)(C)c2cc3cc4cc5c(cc4cc3cc21)C(=O)c1cc2cc3cc4c(cc3cc2cc1C5=O)[Si](C)(C)O[Si]4(C)C

Structure (SMILES): CCCCC1(c2ccccc2)Nc2c(-c3ccc(OC)cc3)ccc(-c3ccc(OC)cc3)c2N=C1c1ccccc1 (configuration not stated)
emission maximum (in C1CCOC1): 547 nm | emission maximum (in CC#N): 556 nm | emission maximum (in CCCCCC): 517 nm | emission maximum (in CN(C)C=O): 568 nm | emission maximum (in Cc1ccccc1): 525 nm | emission maximum (in ClC(Cl)Cl): 537 nm

emission maximum (in ClCCl): 423 nm
Structure (SMILES): c1ccc2c(-c3cc4c(ccc5sc(-c6cccc7ccccc67)cc54)s3)cccc2c1

Structure (SMILES): CN(C)c1ccc(C2=Nc3scc(-c4ccc(N(C)C)cc4)[n+]3[B-](F)(F)O2)cc1
emission maximum (in C1CCOC1): 616 nm | emission maximum (in Cc1ccccc1): 518 nm | emission maximum (in ClCCl): 590 nm

emission maximum (in ClC(Cl)Cl): 472 nm
Structure (SMILES): C(#Cc1ccncc1)C(C#Cc1ccncc1)=Cc1ccc(C=C(C#Cc2ccncc2)C#Cc2ccncc2)cc1

emission maximum (in CC#N): 553 nm | emission maximum (in CCCCCC): 560 nm | emission maximum (in CCOC(C)=O): 556 nm | emission maximum (in CO): 550 nm | emission maximum (in ClCCl): 555 nm
Structure (SMILES): COC1=[N+]2C(=C(c3ccccc3)c3cc(SC#N)c(OC)n3[B-]2(F)F)C=C1SC#N

emission maximum (in CS(C)=O): 738 nm
Structure (SMILES): COc1ccc(-c2c3nc(cc4ccc([nH]4)c(-c4ccc(OC)c(OCC(=O)O)c4)c4nc(cc5ccc2[nH]5)CC4)CC3)cc1OCC(=O)O

Structure (SMILES): CCCCCCCCn1c2ccc(/C=C/c3ccc(N(c4ccccc4)c4ccccc4)cc3)cc2c2cc3c(cc21)c1cc(/C=C/c2ccc(N(c4ccccc4)c4ccccc4)cc2)ccc1n3CCCCCCCC
emission maximum (in Cc1ccccc1): 453 nm

Structure (SMILES): CC(C)(C)c1cc(C(C)(C)C)c(-c2nnc(-c3ccc(-n4c5ccccc5c5ccccc54)cc3)o2)c(C(C)(C)C)c1
emission maximum (in CCO): 432 nm | emission maximum (in Cc1ccccc1): 376 nm

emission maximum (in C1CCCCC1): 645 nm | emission maximum (in CCOC(C)=O): 680 nm
Structure (SMILES): CC1=[N+]2C(=C(c3ccc(N(c4ccccc4)c4ccccc4)cc3)c3ccc(C)n3[B-]2(F)F)C=C1c1cc2n(c1)[B-](F)(F)[N+]1=CC=CC1=C2c1c(C)cc(C)cc1C

emission maximum (in ClCCl): 425 nm
Structure (SMILES): C(#Cc1cc(C#Cc2cccs2)c(C#Cc2cccs2)c(C#Cc2cccs2)c1C#Cc1cccs1)c1cccs1

emission maximum (in ClC(Cl)Cl): 454 nm
Structure (SMILES): Cc1c2c(c(C)c3ccccc13)-c1cc3nc4ccccc4nc3cc1-2

emission maximum (in CC#N): 476 nm | emission maximum (in CO): 510 nm | emission maximum (in CS(C)=O): 485 nm | emission maximum (in ClC(Cl)Cl): 469 nm
Structure (SMILES): CCC1=C(C)c2cc3c(OC)cc(OC)cc3c(=O)n2C1=O

emission maximum (in ClCCl): 680 nm
Structure (SMILES): CCCC1=Cc2nc1ccc1[nH]c(cc1CCC)c1nc(c(NC(=O)CCCC(=O)O)cc3[nH]c2cc3CCC)C(CCC)=C1

emission maximum (in CN(C)C=O): 687 nm
Structure (SMILES): COC(=O)C(N)Cc1ccc(O[Si]2(Oc3ccc(CC(N)C(=O)OC)cc3)n3c4c5ccccc5c3/N=C3N=C(/N=c5/c6ccccc6/c(n52)=N/C2=NC(=N\4)/c4ccccc42)c2ccccc2\3)cc1 (configuration not stated)

Structure (SMILES): N#Cc1cc2ccc(O)cc2oc1=O
emission maximum (in C1CCCCC1): 411 nm | emission maximum (in C1CCOC1): 405 nm | emission maximum (in CC#N): 402 nm | emission maximum (in CCOC(C)=O): 406 nm | emission maximum (in CS(C)=O): 401 nm | emission maximum (in ClC(Cl)Cl): 408 nm | emission maximum (in O): 410 nm

emission maximum (in C1CCOC1): 533 nm | emission maximum (in ClC(Cl)Cl): 592 nm | emission maximum (in ClCCl): 635 nm
Structure (SMILES): COc1ccc2cc(C#Cc3ccc([N+](=O)[O-])cc3)ccc2c1

emission maximum (in CCO): 616 nm
Structure (SMILES): CC1=CC(C)(C)N(C)c2cc3c(cc21)C(c1ccc(Br)cc1)=c1cc2c(cc1O3)=[N+](C)C(C)(C)C=C2C

emission maximum (in ClCCl): 410 nm
Structure (SMILES): COc1cc2c(cc1OC)C1=C[C@H](c3ccccc3)C3(C(C#N)=C(C#N)N1CC2)c1ccccc1-c1ccccc13

emission maximum (in CC#N): 590 nm
Structure (SMILES): CCCn1c2cccc3oc4cccc5c4[c+](c32)c2c1cccc2n5CCC

emission maximum (in CC#N): 392 nm
Structure (SMILES): Cc1ccc(-c2ccc(/C=C/c3ccccc3)cn2)nc1

emission maximum (in CC#N): 593 nm | emission maximum (in CCCCCCC): 403 nm | emission maximum (in CO): 417 nm | emission maximum (in O): 540 nm
Structure (SMILES): O=[N+]([O-])c1ccc(/C=C/c2cn(S(=O)(=O)c3ccccc3)c3ccccc23)cc1

emission maximum (in C1COCCO1): 437 nm | emission maximum (in CC#N): 449 nm | emission maximum (in CCO): 465 nm | emission maximum (in CO): 469 nm | emission maximum (in ClCCCl): 450 nm | emission maximum (in O): 495 nm
Structure (SMILES): Cc1cccc2nc3c(=O)[nH]c(=O)[nH]c3nc12

emission maximum (in ClC(Cl)Cl): 588 nm
Structure (SMILES): N#Cc1nc(N(Cc2ccccc2)Cc2ccccc2)c(C#N)nc1N(Cc1ccccc1)Cc1ccccc1

Structure (SMILES): COc1ccc(-c2cc(-c3ccc(C)cc3)nc3c(C#N)c(N4CCCC4)nc(N)c23)cc1
emission maximum (in CC#N): 521 nm | emission maximum (in CC(C)=O): 517 nm | emission maximum (in CC(C)O): 511 nm | emission maximum (in CO): 519 nm | emission maximum (in ClC(Cl)Cl): 504 nm | emission maximum (in ClCCl): 509 nm | emission maximum (in c1ccccc1): 513 nm

emission maximum (in C1CCOC1): 456 nm | emission maximum (in CC#N): 462 nm | emission maximum (in CCO): 461 nm | emission maximum (in CS(C)=O): 430 nm | emission maximum (in ClCCl): 465 nm
Structure (SMILES): c1ccc2c(c1)c1ccccc1c1[nH]c(-c3ccc(-c4nc5c6ccccc6c6ccccc6c5[nH]4)cc3)nc21

emission maximum (in ClCCl): 570 nm
Structure (SMILES): CN(C)c1ccc(-c2ccc(/C=C/c3ccncn3)cc2)cc1

emission maximum (in CCCCCC): 455 nm | emission maximum (in ClCCl): 473 nm
Structure (SMILES): CC(C)[Si](C#Cc1ccc(C#C[Si](C(C)C)(C(C)C)C(C)C)c2nc3cc4c(cc3nc12)[C@H]1c2ccccc2[C@@H]4c2ccccc21)(C(C)C)C(C)C

emission maximum (in CCCCCCC): 482 nm
Structure (SMILES): c1ccc2c3c(ccc2c1)-c1cccc2c1c-3cc1ccccc12
